Data taken from patent publication US12102625B2, “Solid forms of FXR agonists” (Gilead Sciences, Inc., priority 2019, dated 2024).
Counter-ions that a name gives are not always drawn.

Assays:
[1] = Solid-form physical stability at ambient conditions / humidity; assay type: physicochemical
[2] = Slurry of the tromethamine salt in aqueous media (disproportionation); assay type: physicochemical

O=C(O)c1ccnc(N2CC(O)(c3ccc(OCc4c(-c5c(Cl)cccc5Cl)noc4C4CC4)cc3Cl)C2)c1
time to full conversion to Formula I tromethamine salt hydrate I ([1]; ambient conditions, depending on % RH): ≤ 1 h

O=C(O)c1ccnc(N2CC(O)(c3ccc(OCc4c(-c5c(Cl)cccc5Cl)noc4C4CC4)cc3Cl)C2)c1 [Formula I tromethamine salt Form II]
moisture absorption and form conversion ([1]; about >20% RH): rapidly absorbs moisture at about >20% RH and converts to Formula I tromethamine salt hydrate II

O=C(O)c1ccnc(N2CC(O)(c3ccc(OCc4c(-c5c(Cl)cccc5Cl)noc4C4CC4)cc3Cl)C2)c1 [Formula I tromethamine salt MTBE solvate]
solid form conversion at ambient conditions ([1]; ambient conditions): converted to disordered material at ambient conditions

O=C(O)c1ccnc(N2CC(O)(c3ccc(OCc4c(-c5c(Cl)cccc5Cl)noc4C4CC4)cc3Cl)C2)c1 [Formula I tromethamine salt ethanol solvate]
solid form conversion at ambient conditions ([1]; ambient conditions): converted to Formula I tromethamine salt hydrate I at ambient conditions

O=C(O)c1ccnc(N2CC(O)(c3ccc(OCc4c(-c5c(Cl)cccc5Cl)noc4C4CC4)cc3Cl)C2)c1 [Formula I tromethamine salt methanol solvate I]
solid form conversion at ambient conditions ([1]; ambient conditions): loses methanol very rapidly at ambient conditions and converts to tromethamine salt methanol solvate III

O=C(O)c1ccnc(N2CC(O)(c3ccc(OCc4c(-c5c(Cl)cccc5Cl)noc4C4CC4)cc3Cl)C2)c1 [Formula I tromethamine salt]
salt stability (disproportionation to zwitterion Form II) ([2]; MeOH/water (0.4-0.6 water activity)): disproportionation | salt stability in slurry (disproportionation to zwitterion hydrate) ([2]; slurry in water): disproportionation of the salt
